Measurements: ChEMBL document CHEMBL1240404, “Rapamycin protects mice from staphylococcal enterotoxin B-induced toxic shock and blocks cytokine release in vitro and in vivo” (Antimicrob Agents Chemother, 2010)
Activity calls are given as the source filed them. The calls are words filed in the database; no cut-off is given here.

How the values were obtained:
[1] = tested on: Mus musculus; assay: Protection against SEB-induced toxicity in C3H/HeJ mouse assessed as lethality at 1.2 mg/kg, in administered at 5 hrs after SEB challenge followed by 5 mg/kg, ip infusion after 24 to 96 hrs of SEB exposure; assay type: functional
[2] = tested on: PBMC; assay: Inhibition of SEB-induced proliferation of human PBMC at 6.9 ug/ml after 48 hrs by [3H]thymidine incorporation assay; assay type: functional
[3] = Drug level in C3H/HeJ mouse blood at 0.03 mg/kg, in administered at 2 and 5 hrs followed by 0.08 mg/kg, ip infusion at 30, 48, 72 and 96 hrs measured at 97 hrs; assay type: ADME, organism-based; details: read-out: Drug uptake
[4] = tested on: PBMC; assay: cells; assay type: functional; details: Homo sapiens, 48 h
[5] = tested on: PBMC; assay: Cytotoxicity against human PBMC at 10 ug/ml after 48 hrs by [3H]thymidine incorporation assay; assay type: cell-based
[6] = tested on: Mus musculus; assay: Inhibition of SEB-induced weight loss in C3H/HeJ mouse assessed as weight gain at 0.7 mg/kg, in measured after 150 hrs of SEB challenge; assay type: functional
[7] = tested on: PBMC; assay: cells; assay type: functional; details: Homo sapiens, 48 h; remark: listed apart in the source
[8] = tested on: PBMC; assay: cells; assay type: functional; details: Homo sapiens, 48 h; remark: listed apart in the source
[9] = tested on: Mus musculus; assay: Protection against SEB-induced toxicity in C3H/HeJ mouse assessed as survival rate at 0.7 mg/kg, in administered at 3 hrs after SEB challenge followed by 1.6 mg/kg, ip infusion after 24 to 96 hrs of SEB exposure; assay type: functional
[10] = tested on: Mus musculus; assay: Antiinflammatory activity in C3H/HeJ mouse assessed as reduction in SEB-induced increase in serum IL-6 level at 0.7 mg/kg, in after 5 hrs; assay type: functional, organism-based; set-up: dose 0.7 mg/kg
[11] = Drug level in C3H/HeJ mouse blood at 0.7 mg/kg, in after 1 hr; assay type: ADME, organism-based; set-up: dose 0.7 mg/kg; details: inhaled or intranasal, read-out: Drug uptake
[12] = tested on: Mus musculus; assay: Protection against SEB-induced toxicity in C3H/HeJ mouse assessed as survival rate at 0.7 mg/kg, in administered at 2 hrs after SEB challenge followed by 1.6 mg/kg, ip infusion after 24 to 96 hrs of SEB exposure; assay type: functional
[13] = tested on: PBMC; assay: Inhibition of SEB-induced proliferation of human PBMC after 48 hrs by [3H]thymidine incorporation assay; assay type: functional, cell-based
[14] = tested on: Mus musculus; assay: Protection against SEB-induced toxicity in C3H/HeJ mouse assessed as appearance of ruffled fur and lethargy at 0.7 mg/kg, in administered at 72 hrs after SEB challenge followed by 1.6 mg/kg, ip infusion after 30 to 96 hrs of SEB exposure; assay type: functional, organism-based
[15] = tested on: Mus musculus; assay: Protection against SEB-induced toxicity in C3H/HeJ mouse assessed as survival rate at 0.7 mg/kg, in administered at 4 hrs after SEB challenge followed by 1.6 mg/kg, ip infusion after 24 to 96 hrs of SEB exposure; assay type: functional
[16] = tested on: Mus musculus; assay: Protection against SEB-induced toxicity in C3H/HeJ mouse assessed as attenuation of hypothermic response at 0.7 mg/kg, in administered at 5 hrs after SEB challenge; assay type: functional, organism-based; set-up: dose 0.7 mg/kg
[17] = tested on: PBMC; assay: Inhibition of SEB-induced proliferation of human PBMC at 6.9 ug/ml after 3 hrs by [3H]thymidine incorporation assay; assay type: functional
[18] = tested on: Mus musculus; assay: Protection against SEB-induced toxicity in C3H/HeJ mouse assessed as attenuation of hypothermic response at 0.7 mg/kg, in administered at 42 hrs after SEB challenge followed by 1.6 mg/kg, ip infusion after 30 to 96 hrs of SEB exposure; assay type: functional
[19] = tested on: PBMC; assay: cells; assay type: functional; details: Homo sapiens, 48 h; remark: listed apart in the source
[20] = tested on: Mus musculus; assay: Antiinflammatory activity in C3H/HeJ mouse assessed as reduction in SEB-induced increase in serum IL-6 level at 0.7 mg/kg, in after 24 hrs; assay type: functional, organism-based; set-up: dose 0.7 mg/kg
[21] = tested on: PBMC; assay: cells; assay type: functional; details: Homo sapiens, 48 h; remark: listed apart in the source
[22] = tested on: PBMC; assay: Inhibition of SEB-induced proliferation of human PBMC at 0.69 ug/ml after 48 hrs by [3H]thymidine incorporation assay; assay type: functional
[23] = tested on: Mus musculus; assay: Protection against SEB-induced toxicity in C3H/HeJ mouse assessed as survival rate at 1.2 mg/kg, in administered at 2 hrs after SEB challenge followed by 5 mg/kg, ip infusion after 24 to 96 hrs of SEB exposure; assay type: functional
[24] = tested on: Mus musculus; assay: Protection against SEB-induced toxicity in C3H/HeJ mouse assessed as survival rate at 1.2 mg/kg, in administered at 5 hrs after SEB challenge followed by 5 mg/kg, ip infusion after 24 to 96 hrs of SEB exposure; assay type: functional
[25] = tested on: PBMC; assay: cells; assay type: functional; details: Homo sapiens, 48 h; remark: listed apart in the source
[26] = tested on: PBMC; assay: cells; assay type: functional; details: Homo sapiens, 48 h; remark: listed apart in the source
[27] = tested on: Mus musculus; assay: Protection against SEB-induced toxicity in C3H/HeJ mouse assessed as attenuation of hypothermic response at 0.7 mg/kg, in administered at 24 hrs after SEB challenge followed by 1.6 mg/kg, ip infusion after 30 to 96 hrs of SEB exposure; assay type: functional, organism-based
[28] = Drug level in C3H/HeJ mouse blood at 0.7 mg/kg, in administered at 2 and 5 hrs followed by 1.6 mg/kg, ip infusion at 30, 48, 72 and 96 hrs measured at 97 hrs; assay type: ADME, organism-based; details: read-out: Drug uptake
[29] = tested on: Mus musculus; assay: Antiinflammatory activity in C3H/HeJ mouse assessed as reduction in SEB-induced increase in serum IL-6 level at 0.7 mg/kg, in after 75 hrs; assay type: functional, organism-based; set-up: dose 0.7 mg/kg
[30] = tested on: Mus musculus; assay: Antiinflammatory activity in C3H/HeJ mouse assessed as reduction in SEB-induced increase in serum IL-6 level at 0.7 mg/kg, in after 51 hrs; assay type: functional, organism-based; set-up: dose 0.7 mg/kg
[31] = tested on: Mus musculus; assay: Inhibition of SEB-induced weight loss in C3H/HeJ mouse assessed as weight gain at 0.7 mg/kg, in administered at 24 hrs after SEB challenge followed by 1.6 mg/kg, ip infusion after 30 to 96 hrs of SEB exposure; assay type: functional, organism-based
[32] = tested on: Mus musculus; assay: Protection against SEB-induced toxicity in C3H/HeJ mouse assessed as survival rate at 0.7 mg/kg, in administered at 5 hrs after SEB challenge followed by 1.6 mg/kg, ip infusion after 24 to 96 hrs of SEB exposure; assay type: functional

With `C[C@@H]1C[C@H]2[C@@H]3CCC4=CC(=O)C=C[C@]4(C)[C@@]3(F)[C@@H](O)C[C@]2(C)[C@@]1(O)C(=O)CO` [DEXAMETHASONE] the Activity [1] was 90%.

Work on `CO[C@H]1C[C@@H]2CC[C@@H](C)[C@@](O)(O2)C(=O)C(=O)N2CCCC[C@H]2C(=O)O[C@H]([C@H](C)C[C@@H]2CC[C@@H](O)[C@H](OC)C2)CC(=O)[C@H](C)/C=C(\C)[C@@H](O)[C@@H](OC)C(=O)[C@H](C)C[C@H](C)/C=C/C=C/C=C/1C` [SIROLIMUS] yielded an inhibition at 6.9 µg/mL [2] of 94%, a concentration at 97 h [3] of 38 ng/mL and an inhibition at 0.0069 µg/mL [4] of 36%. For the same compound, the Activity [5] was “Non-toxic”, the inhibition in vivo at 0.7 mg/kg [6] was 8% and the inhibition at 6.9 µg/mL [7] was 100%. For the same compound, the inhibition at 6.9 µg/mL [8] was 97%, the Activity [9] was 100% and the inhibition [10] was “inactive”. The concentration at 1 h [11] was 492 ng/mL, the Activity [12] was 100% and the inhibition [13] was “Dose-dependent effect”. For the same compound, the Activity [14] was “Active”, the Activity [15] was 100% and the Activity [16] was “Active”. For the same compound, the inhibition at 6.9 µg/mL [17] was 40%, the Activity [18] was 20% and the inhibition at 0.0069 µg/mL [19] was 34%. The inhibition [20] was “Active”, the inhibition at 6.9 µg/mL [21] was 67% and the inhibition at 0.69 µg/mL [22] was 56%. For the same compound, the Activity [23] was 100%, the Activity [24] was 10% and the inhibition at 6.9 µg/mL [25] was 77%. The inhibition at 6.9 µg/mL [26] was 100%, the Activity [27] was “Active” and the concentration at 97 h [28] was 622 ng/mL. The inhibition [29] was “Active”, the inhibition [30] was “Active” and the inhibition [31] was “Active”. The Activity [32] was 100%.
